Oligonucleotides are written 5' to 3', each unit as a sugar letter and its base; * is a phosphorothioate linkage, no mark a phosphodiester; rarer units and linkages stand in square brackets, end groups in braces. Plain capitals give the bases only. r = 2'-OH (RNA); {P} = phosphate
tested on: human survivin mRNA; test: Inhibition of human survivin mRNA by single-stranded asRNA in HUVEC, real-time quantitative PCR; type: cell-based; set-up: concentration or dose not given beside the values; conditions: Table 7
Description: HUVEC were obtained from ATCC and routinely cultured in EBM (Clonetics Corp, Walkersille, Md.) supplemented with SingleQuots supplements. Cells were routinely passaged by trypsinizaiton and dilution when they reached 90% confluence were maintained for up to 15 passages. For cells grown in 96-well plates (10,000 cells/well), wells were washed once with 200 μL OPTI-MEM-1™ reduced-serum medium (Gibco BRL) and then treated with 130 μL of OPTI-MEM-1™ containing 12 μg/mL LIPOFECTIN™ (Gibco BRL) and the desired double-stranded compounds at a final concentration of 25 nM. After 5 hours of treatment, the medium was replaced with fresh medium. Cells were harvested 16 hours after dsRNA treatment, at which time RNA was isolated and target reduction measured by RT-PCR.
A series of single-stranded olgometric compounds (asRNA) was evaluated for their ability to inhibit human survivin in human umbilical vein endothelial cells (HUVEC). Culture methods used for HUVEC are found, for example, at www.atcc.org.
Data were obtained by real-time quantitative PCR as described in other examples herein.

Row | Substance | % INHIB, inhibition of human survivin mRNA levels by asRNA oligomeric compounds [%]
1 | 347449 (antisense {P}-rG*rG*rC*rG*rA*rA*rU*rC*rA*rA*rA*rU*rC*rC*rA*rU*rC*rA*rU*rC) [compound 347449] | 51
2 | 347451 (antisense {P}-rG*rC*rC*rG*rA*rG*rA*rU*rG*rA*rC*rC*rU*rC*rC*rA*rG*rA*rG*rG) [compound 347451] | 59
3 | 347444 (antisense {P}-rA*rA*rA*rG*rG*rA*rU*rU*rU*rA*rG*rG*rC*rC*rA*rC*rU*rG*rC*rC) [compound 347444] | 60
4 | 347441 (antisense {P}-rA*rA*rG*rG*rA*rG*rU*rA*rU*rC*rU*rG*rC*rC*rA*rG*rA*rC*rG*rC) [compound 347441] | 66
5 | 347442 (antisense {P}-rU*rA*rA*rU*rC*rA*rC*rA*rC*rA*rG*rC*rA*rG*rU*rG*rG*rC*rA*rA) [compound 347442] | 66
6 | 347439 (antisense {P}-rA*rG*rA*rA*rU*rG*rG*rC*rU*rU*rU*rG*rU*rG*rC*rU*rU*rA*rG*rU) [compound 347439] | 62
7 | 347440 (antisense {P}-rU*rC*rC*rA*rC*rC*rU*rG*rA*rA*rG*rU*rU*rC*rA*rC*rC*rC*rC*rG) [compound 347440] | 57
8 | 347427 (antisense {P}-rA*rG*rC*rA*rC*rA*rG*rU*rU*rG*rA*rA*rA*rC*rA*rU*rC*rU*rA*rA) [compound 347427] | 54
9 | 347430 (antisense {P}-rG*rC*rA*rA*rA*rA*rG*rG*rG*rA*rC*rA*rC*rU*rG*rC*rC*rU*rU*rC) [compound 347430] | 66
10 | 347437 (antisense {P}-rG*rC*rU*rA*rU*rU*rC*rU*rG*rU*rG*rA*rA*rU*rU*rA*rA*rC*rA*rA) [compound 347437] | 54
11 | 347445 (antisense {P}-rA*rC*rA*rG*rC*rA*rU*rC*rG*rA*rG*rC*rC*rA*rA*rG*rU*rC*rA*rU) [compound 347445] | 53
12 | 347438 (antisense {P}-rA*rG*rU*rU*rU*rG*rU*rG*rC*rU*rA*rU*rU*rC*rU*rG*rU*rG*rA*rA) [compound 347438] | 64
13 | 347429 (antisense {P}-rU*rC*rC*rC*rU*rC*rA*rC*rU*rU*rC*rU*rC*rA*rC*rC*rU*rG*rG*rU) [compound 347429] | 62
14 | 347423 (antisense {P}-rA*rU*rC*rC*rA*rU*rG*rG*rC*rA*rG*rC*rC*rA*rG*rC*rU*rG*rC*rU) [compound 347423] | 55
15 | 347426 (antisense {P}-rA*rU*rU*rU*rG*rA*rA*rA*rA*rU*rG*rU*rU*rG*rA*rU*rC*rU*rC*rC) [compound 347426] | 60
16 | 347450 (antisense {P}-rA*rU*rC*rC*rA*rC*rC*rC*rU*rG*rC*rA*rG*rC*rU*rC*rU*rA*rU*rG) [compound 347450] | 55
17 | 347424 (antisense {P}-rA*rA*rC*rC*rC*rU*rG*rG*rA*rA*rG*rU*rG*rG*rU*rG*rC*rA*rG*rC) [compound 347424] | 69
18 | 347447 (antisense {P}-rG*rA*rA*rC*rG*rU*rG*rA*rC*rA*rG*rA*rU*rG*rU*rG*rA*rA*rG*rG) [compound 347447] | 47
19 | 347431 (antisense {P}-rA*rG*rG*rC*rU*rC*rU*rG*rC*rC*rC*rA*rC*rG*rC*rG*rA*rA*rC*rA) [compound 347431] | 67
20 | 347443 (antisense {P}-rG*rU*rG*rC*rC*rC*rC*rG*rC*rG*rG*rC*rU*rC*rA*rC*rU*rG*rG*rG) [compound 347443] | 54
21 | 347436 (antisense {P}-rA*rA*rC*rA*rA*rA*rA*rU*rA*rA*rG*rA*rA*rA*rG*rC*rC*rA*rU*rG) [compound 347436] | 51
22 | 347432 (antisense {P}-rC*rA*rA*rC*rA*rU*rG*rA*rG*rG*rU*rC*rC*rA*rG*rA*rC*rA*rC*rA) [compound 347432] | 66
23 | 347435 (antisense {P}-rC*rA*rG*rG*rG*rA*rC*rU*rC*rU*rG*rU*rC*rU*rC*rC*rA*rU*rU*rC) [compound 347435] | 44
24 | 347425 (antisense {P}-rA*rG*rG*rC*rU*rG*rG*rU*rG*rG*rC*rA*rC*rC*rA*rG*rG*rG*rA*rA) [compound 347425] | 90
25 | 347434 (antisense {P}-rU*rA*rA*rG*rG*rA*rA*rC*rC*rU*rG*rC*rA*rG*rC*rU*rC*rA*rG*rA) [compound 347434] | 70
26 | 347428 (antisense {P}-rA*rG*rA*rA*rG*rC*rA*rC*rC*rU*rC*rU*rG*rG*rU*rG*rC*rC*rA*rC) [compound 347428] | 60
27 | 347446 (antisense {P}-rA*rC*rA*rG*rA*rC*rA*rC*rA*rC*rG*rG*rC*rC*rU*rG*rC*rA*rG*rC) [compound 347446] | 52
28 | 347433 (antisense {P}-rA*rG*rU*rC*rC*rA*rC*rA*rC*rU*rC*rA*rG*rG*rA*rC*rU*rG*rU*rG) [compound 347433] | 60
29 | 347448 (antisense {P}-rU*rC*rC*rA*rU*rC*rA*rU*rC*rU*rU*rA*rC*rG*rC*rC*rA*rG*rA*rC) [compound 347448] | 58
